How the values were obtained:
[1] = system: mitochondrial membrane potential; type: cell-based
Protocol: Various examples describing various real-life responses obtained using the mitochondrial marker TMRM will now be given. In actual images of cells stained with TMRM, the level of fluorescence intensity is related to the mitochondrial membrane potential, loss of which can be an indicator of cytotoxicity.
(§1) However, in order to verify further the robustness of the developed methods, these algorithms were tested on FOV-averaged data generated from a real toxicity assay. The cell-based experiment involved the influence of several drugs and the applications of two fluorescent markers during a 5-hour time course. The general background for such an experimental study is outlined in the article by O'Brien et al.
The second example analyzed a mitochondrial marker (TMRM) response. […] It was assumed that all cells started reacting immediately after drug addition. The reaction of a mitochondrial potential to a perturbation (i.e. a drug) is considered to be potentially very diverse.
The expression defined in Equation 16 above is very flexible, and uses as a fitting parameter the single time scale (“τ”), amplitude (“range”) and another parameter (“α”) for controlling response nonlinearity.
The TMRM response was taken for two values of drug concentration, denoted “high” and “low”.
Data fitting was performed using the technique discussed in relation to Equation 16, above. […]

[2] = system: cytoplasmatic membrane integrity; type: cell-based
Protocol: as §1
The first example analyzed the cytoplasmatic membrane integrity, as indicated by the TOTO-3 marker. TOTO-3 stains cell nuclei only after cell plasma membrane disruption. The response1(t) generated by disruption to the membrane is therefore a curve representing the increase of cell nuclei intensity in TOTO-3 channel. This intensity was measured by a microscopy HTS system. However, the exact moment when a particular membrane became disrupted was unpredictable.
The analysis therefore used stochastic fitting involving a single time parameter (the width of the box-shaped distribution of starting times of the response).
FIG. 11 represents the raw TOTO-3 response. The TOTO-3 response was taken for two values of drug concentration, denoted “high” and “low”.
Data fitting was performed using a response1(t) function having an exponential rising shape. τ was equal to 15 minutes, A=0.5 and B=1.48. The starting time distribution was box shaped with tmin=0 and widtht−fitted.

| effect on mitochondrial function (TMRM response) [1] | TOTO-3 response speed (characteristic time) relative to controls [2] | Structure (SMILES) |
| --- | --- | --- |
| no effect | – | O=C1CN(/N=C/c2ccc(-c3ccc([N+](=O)[O-])cc3)o2)C(O)=N1 [dantrolene] |
| – | responding faster than controls | CC/C(=C(\c1ccccc1)c1ccc(OCCN(C)C)cc1)c1ccccc1 [tamoxifen] |
| no effect | – | Cc1oncc1C(=O)Nc1ccc(C(F)(F)F)cc1 [leflunomide] |
| – | responding faster than controls | CC[C@H](C)C(=O)O[C@H]1C[C@@H](C)C=C2C=C[C@H](C)[C@H](CC[C@@H]3C[C@@H](O)CC(=O)O3)[C@H]21 [lovastatin] |
| – | responding faster than controls | COc1ccc(CCN2CCC(Nc3nc4ccccc4n3Cc3ccc(F)cc3)CC2)cc1 [astemizole] |
